These are literature values, as cited in patent US20100080768A1, “Compositions and Methods for the Treatment of Inflammatory Dermatosis and Other Pathological Conditions of the Skin” (priority 2008, published 2010).

Each structure is given as a SMILES string.

Assay in data set [1]: not given
The source holds these as a separate data set.

`NC(=O)c1cccnc1` [Nicotinamide, nicotinamide]: the solubility in water entry is reported as “free soluble”. For the same compound, in data set [1], the pka value was 0.5.
